Experimental findings from US11866450B2, “Modulators of Cystic Fibrosis Transmembrane Conductance regulator, pharmaceutical compositions, methods of treatment, and process for making the modulators” (priority 2018, dated 2024) are described below.

For data set [1] the following is noted: snar bond.
Data set [2] addresses CFTR-mediated chloride transport (Homo sapiens, UniProt P13569). It counts as cell-based. Particulars: enteroid cells incubated with test compound 18-24 hours, acute 10 μM forskolin and 300 nM Compound III; for Max. Activity: % of chloride transport with 3 μM Compound A, 3 μM Compound II and 300 nM acute Compound III triple combination control. The procedure, abridged:
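Human intestinal enteroid cells incubated with compound 18–24 h at 37° C., then membrane potential dye (FLIPR) read 15 min after chloride-free stimulation with 10 μM forskolin, 100 μM IBMX and 300 nM Compound III. AUC expressed as % of triple-combination control (3 μM Compound A, 3 μM Compound II, 300 nM Compound III).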

Each structure is given as a SMILES string. pEC50: −log10 of the molar value. Like-named read-outs stand apart in the source and are kept apart here.

CFTR-mediated chloride transport, sequence (P13569 whole entry, looked up): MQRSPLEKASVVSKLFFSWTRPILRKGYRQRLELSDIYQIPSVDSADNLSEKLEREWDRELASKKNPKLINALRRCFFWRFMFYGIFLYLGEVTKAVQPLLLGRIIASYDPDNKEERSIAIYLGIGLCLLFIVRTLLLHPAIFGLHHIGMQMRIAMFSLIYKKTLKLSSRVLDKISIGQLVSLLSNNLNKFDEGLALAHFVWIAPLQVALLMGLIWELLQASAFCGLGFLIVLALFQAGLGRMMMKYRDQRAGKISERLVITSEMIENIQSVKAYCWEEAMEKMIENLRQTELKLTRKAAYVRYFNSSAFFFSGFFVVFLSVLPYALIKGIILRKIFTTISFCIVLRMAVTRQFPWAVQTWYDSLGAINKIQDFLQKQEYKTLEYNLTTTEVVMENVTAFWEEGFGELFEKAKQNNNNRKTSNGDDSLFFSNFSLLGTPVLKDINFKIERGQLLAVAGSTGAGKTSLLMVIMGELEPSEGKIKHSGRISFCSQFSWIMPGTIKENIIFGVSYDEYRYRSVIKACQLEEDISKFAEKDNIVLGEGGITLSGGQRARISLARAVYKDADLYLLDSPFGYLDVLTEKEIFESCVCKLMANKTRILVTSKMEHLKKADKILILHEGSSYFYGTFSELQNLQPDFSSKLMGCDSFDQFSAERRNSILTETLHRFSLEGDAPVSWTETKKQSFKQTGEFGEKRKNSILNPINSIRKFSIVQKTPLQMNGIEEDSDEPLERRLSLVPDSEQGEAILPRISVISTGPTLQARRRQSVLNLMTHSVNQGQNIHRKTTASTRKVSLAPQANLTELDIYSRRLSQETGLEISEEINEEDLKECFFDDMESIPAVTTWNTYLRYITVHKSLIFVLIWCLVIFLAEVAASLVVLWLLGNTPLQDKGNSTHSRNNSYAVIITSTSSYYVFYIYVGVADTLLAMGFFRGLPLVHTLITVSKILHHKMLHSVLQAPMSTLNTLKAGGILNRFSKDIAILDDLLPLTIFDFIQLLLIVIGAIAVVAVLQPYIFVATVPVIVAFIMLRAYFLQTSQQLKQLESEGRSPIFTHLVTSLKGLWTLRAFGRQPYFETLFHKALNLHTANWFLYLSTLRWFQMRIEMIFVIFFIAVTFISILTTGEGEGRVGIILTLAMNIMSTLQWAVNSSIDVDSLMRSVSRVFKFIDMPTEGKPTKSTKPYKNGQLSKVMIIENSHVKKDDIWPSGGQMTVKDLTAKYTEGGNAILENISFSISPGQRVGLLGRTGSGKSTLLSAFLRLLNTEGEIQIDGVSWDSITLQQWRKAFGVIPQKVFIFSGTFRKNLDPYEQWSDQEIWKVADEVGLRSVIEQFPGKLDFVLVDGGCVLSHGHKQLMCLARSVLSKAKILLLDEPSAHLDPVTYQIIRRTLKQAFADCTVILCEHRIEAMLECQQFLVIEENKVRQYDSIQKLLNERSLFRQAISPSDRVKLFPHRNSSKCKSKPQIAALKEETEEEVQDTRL

As a reminder, the pEC50 is −log10 of the EC50, conventionally taken in molar units. As for `CC1(C)CC2CCCCCc3ccc(cn3)S(=O)(=O)NC(=O)c3ccc(-n4ccc(OCCC5(C(F)(F)F)CC5)n4)nc3N1C2` (stereo not drawn) [Compound 142, 12,12-Dimethyl-8-(3-{2-[1-(trifluoromethyl)cyclopropyl]ethoxy}-1H-pyrazol-1-yl)-2λ^6-thia-3,9,11,21-tetraazatetracyclo[18.2.2.111,14.05,10]pentacosa-1(23),5,7,9,20(24),21-hexaene-2,2,4-trione], the ring closure, isolated yield in data set [1] (from 2-chloro-N-[[6-[5-(5,5-dimethylpyrrolidin-3-yl)pentyl]-3-pyridyl]sulfonyl]-6-[3-[2-[1-(trifluoromethyl)cyclopropyl]ethoxy]pyrazol-1-yl]pyridine-3-carboxamide (dihydrochloride salt), 17-membered ring, K2CO3/CsF, DMSO, 63.0 mM, 165.0 °C) came out at 36%. In data set [2], the pEC50 was greater than 6.00 and the “Max. Activity” value is “+ (+ is <30%)”.

`CN1CCCC2CCC(C)(C)N2c2nc(-n3ccc(OCCC4(C(F)(F)F)CC4)n3)ccc2C(=O)NS(=O)(=O)c2cccc1n2` (racemic) [Compound 9, 12,12,19-trimethyl-8-(3-{2-[1-(trifluoromethyl)cyclopropyl]ethoxy}-1H-pyrazol-1-yl)-2λ^6-thia-3,9,11,19,24-pentaazatetracyclo[18.3.1.05,10.011,15]tetracosa-1(23),5,7,9,20(24),21-hexaene-2,2,4-trione] registered a ring closure, isolated yield in data set [1] (from CN(CCCC1CCC(C)(C)N1)c1cccc(S(=O)(=O)NC(=O)c2ccc(-n3ccc(OCCC4(C(F)(F)F)CC4)n3)nc2Cl)n1, 14-membered ring, K2CO3/CsF/3A MS, DMSO, 72.3 mM, 150.0 °C, 25.0 h) of 78%. In data set [2], the pEC50 is greater than 6.00 and the “Max. Activity” value is listed as “++ (++ is 30-60%)”.

As for `CC1(C)CCC2CCNc3cccc(n3)S(=O)(=O)NC(=O)c3ccc(-n4ccc(OCCC5(C(F)(F)F)CC5)n4)nc3N21` (racemic) [Compound 108, 8,8-Dimethyl-12-(3-{2-[1-(trifluoromethyl)cyclopropyl]ethoxy}-1H-pyrazol-1-yl)-18λ^6-thia-2,9,11,17,23-pentaazatetracyclo[17.3.1.05,9.010,15]tricosa-1(23),10(15),11,13,19,21-hexaene-16,18,18-trione], in data set [1] (from CC(C)(C)OC(=O)N1C(CCNc2cccc(S(=O)(=O)NC(=O)c3ccc(-n4ccc(OCCC5(C(F)(F)F)CC5)n4)nc3Cl)n2)CCC1(C)C, 13-membered ring, TFA (Boc off), CsF/K2CO3/3A MS, DMSO, 84.6 mM, 130.0 °C, 2 steps), the ring closure, isolated yield was determined as 55%. Also, in data set [2], the negative-log EC50 (pEC50) is greater than 6.00 and the “Max. Activity” value was “++ (++ is 30-60%)”.

Regarding `CC1(C)C[C@@H]2CCCNc3cccc(n3)S(=O)(=O)NC(=O)c3ccc(-n4ccc(OCCC(O)C5(C(F)(F)F)CC5)n4)nc3N1C2` (stereo partly drawn) [Compound 295, (14S)-8-(3-{3-hydroxy-3-[1-(trifluoromethyl)cyclopropyl]propoxy}-1H-pyrazol-1-yl)-12,12-dimethyl-2λ^6-thia-3,9,11,18,23-pentaazatetracyclo[17.3.1.111,14.05,10]tetracosa-1(22),5,7,9,19(23),20-hexaene-2,2,4-trione], the ring closure, isolated yield in data set [1] (from CC(C)(C)OC(=O)N1C[C@@H](CCCNc2cccc(S(=O)(=O)NC(=O)c3ccc(-n4ccc(OCCC(O[Si](C)(C)C(C)(C)C)C5(C(F)(F)F)CC5)n4)nc3Cl)n2)CC1(C)C, 15-membered ring, K2CO3/CsF/3A MS, DMSO, 41.7 mM, 150.0 °C, 2 steps) stood at 46%. Also, in data set [2], the negative-log EC50 (pEC50) was greater than 6.00 and the “Max. Activity” value is reported as “++ (++ is 30-60%)”.

With `CC1(C)CC2CNc3cccc(n3)S(=O)(=O)NC(=O)c3ccc(-n4ccc(OCCC5(C(F)(F)F)CC5)n4)nc3N1C2` (stereo not drawn) [Compound 17, 6,6-dimethyl-10-(3-{2-[1-(trifluoromethyl)cyclopropyl]ethoxy}-1H-pyrazol-1-yl)-16λ^6-thia-2,7,9,15,21-pentaazatetracyclo[15.3.1.14,7.08,13]docosa-1(20),8,10,12,17(21),18-hexaene-14,16,16-trione], the ring closure, isolated yield in data set [1] (from CC(C)(C)OC(=O)N1CC(CNc2cccc(S(=O)(=O)NC(=O)c3ccc(-n4ccc(OCCC5(C(F)(F)F)CC5)n4)nc3Cl)n2)CC1(C)C, 13-membered ring, K2CO3/CsF/3A MS, DMSO, 45.0 mM, 155.0 °C, 2 steps) came to 57%. Further, in data set [2], the pEC50 was 5.52 to 6.00 and the “Max. Activity” value is “++ (++ is 30-60%)”.

For the compound `CC1(C)CC2CCCOc3cccc(n3)S(=O)(=O)NC(=O)c3ccc(-n4ccc(OCCC5(C(F)(F)F)CC5)n4)nc3N1C2` (racemic) [Compound 40, 12,12-dimethyl-8-(3-{2-[1-(trifluoromethyl)cyclopropyl]ethoxy}-1H-pyrazol-1-yl)-18-oxa-2λ^6-thia-3,9,11,23-tetraazatetracyclo[17.3.1.111,14.05,10]tetracosa-1(22),5,7,9,19(23),20-hexaene-2,2,4-trione], the ring closure, isolated yield in data set [1] (from CC1(C)CC(CCCOc2cccc(S(=O)(=O)NC(=O)c3ccc(-n4ccc(OCCC5(C(F)(F)F)CC5)n4)nc3Cl)n2)CN1, 15-membered ring, K2CO3/CsF/3A MS, DMSO, 37.3 mM, 150.0 °C, 8.0 h) was determined as 48%. For the same compound, in data set [2], the pEC50 is greater than 6.00 and the “Max. Activity” value is “++ (++ is 30-60%)”.

`[2H]C([2H])(COc1ccn(-c2ccc3c(n2)N2C[C@@H](CCCNc4cccc(n4)S(=O)(=O)NC3=O)CC2(C)C)n1)C([2H])([2H])C1(C(F)(F)F)CC1` [Compound 287, (14S)-12,12-dimethyl-8-(3-{3-[1-(trifluoromethyl)cyclopropyl]-2,2,3,3-tetradeuterio-propoxy}-1H-pyrazol-1-yl)-2λ^6-thia-3,9,11,18,23-pentaazatetracyclo[17.3.1.111,14.05,10]tetracosa-1(22),5,7,9,19(23),20-hexaene-2,2,4-trione]: the ring closure, isolated yield in data set [1] (from [2H]C([2H])(COc1ccn(-c2ccc(C(=O)NS(=O)(=O)c3cccc(NCCC[C@@H]4CNC(C)(C)C4)n3)c(Cl)n2)n1)C([2H])([2H])C1(C(F)(F)F)CC1, 15-membered ring, K2CO3, NMP, 20.8 mM, 155.0 °C, 18.0 h) stood at 73%. Besides, in data set [2], the pEC50 was greater than 6.00 and the “Max. Activity” value was “++ (++ is 30-60%)”.

In data set [1] (from CC1(C)C[C@H](CCCNc2cccc(S(=O)(=O)NC(=O)c3ccc(-n4ccc(OCCC(C5CC5)C5CC5)n4)nc3Cl)n2)CN1, 15-membered ring, K2CO3/CsF, NMP, 75.7 mM, 150.0 °C, 20.0 h), `CC1(C)C[C@@H]2CCCNc3cccc(n3)S(=O)(=O)NC(=O)c3ccc(-n4ccc(OCCC(C5CC5)C5CC5)n4)nc3N1C2` [Compound 66, (14S)-8-[3-(3,3-dicyclopropylpropoxy)-1H-pyrazol-1-yl]-12,12-dimethyl-2λ^6-thia-3,9,11,18,23-pentaazatetracyclo[17.3.1.111,14.05,10]tetracosa-1(22),5,7,9,19(23),20-hexaene-2,2,4-trione] returned a ring closure, isolated yield of 63%. In data set [2], the pEC50 is greater than 6.00 and the “Max. Activity” value is recorded as “+++ (+++ is >60%)”.

As for `CC1(C)CC2CCCCOc3ccc(cc3)S(=O)(=O)NC(=O)c3ccc(-n4ccc(OCCC5(C(F)(F)F)CC5)n4)nc3N1C2` (racemic) [Compound 89, 12,12-dimethyl-8-(3-{2-[1-(trifluoromethyl)cyclopropyl]ethoxy}-1H-pyrazol-1-yl)-19-oxa-2λ^6-thia-3,9,11-triazatetracyclo[18.2.2.111,14.05,10]pentacosa-1(22),5,7,9,20,23-hexaene-2,2,4-trione], in data set [1] (from CC1(C)CC(CCCCOc2ccc(S(=O)(=O)NC(=O)c3ccc(-n4ccc(OCCC5(C(F)(F)F)CC5)n4)nc3Cl)cc2)CN1, 17-membered ring, K2CO3/CsF/3A MS, DMSO, 36.5 mM, 165.0 °C, 18.0 h), the ring closure, isolated yield came out at 21%. In data set [2], the negative logarithm of the EC50 (pEC50) is greater than 6.00 and the “Max. Activity” value is “++ (++ is 30-60%)”.

Take `CC1(C)CC2CCCCNc3cccc(n3)S(=O)(=O)NC(=O)c3ccc(-n4ccc(OCCC5(C(F)(F)F)CC5)n4)nc3N1C2` (racemic) [Compound 28, 12,12-dimethyl-8-(3-{2-[1-(trifluoromethyl)cyclopropyl]ethoxy}-1H-pyrazol-1-yl)-2λ^6-thia-3,9,11,19,24-pentaazatetracyclo[18.3.1.111,14.05,10]pentacosa-1(23),5,7,9,20(24),21-hexaene-2,2,4-trione]: in data set [1] (from CC1(C)CC(CCCCNc2cccc(S(=O)(=O)NC(=O)c3ccc(-n4ccc(OCCC5(C(F)(F)F)CC5)n4)nc3Cl)n2)CN1, 16-membered ring, K2CO3/CsF/3A MS, DMSO, 62.4 mM, 150.0 °C, 18.0 h, 2 steps), the ring closure, isolated yield worked out at 60%. In data set [2], the negative logarithm of the EC50 (pEC50) is greater than 6.00 and the “Max. Activity” value is given as “++ (++ is 30-60%)”.
